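Growth conditions: 96-well plates. Treatment: test compound, 48 hours, 5 concentrations. Analysis: linear interpolation between bracketing concentrations; unreached endpoints set to highest concentration. At the GI50, growth is halved.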 Active and inactive are the calls of the source. Rule as the data show it: active = GI50 up to about 1.1 µM and inactive = higher.
Assays:
Test in all cases: growth of human tumour cells (NCI), 48 h
MDA-MB-435 = test system: MDA-MB-435
KM12 = test system: KM12
SW-620 = test system: SW-620
M14 = test system: M14
NCI/ADR-RES = test system: NCI/ADR-RES
CAKI-1 = test system: CAKI-1
LOX IMVI = test system: LOX IMVI
RXF 393 = test system: RXF 393
SK-MEL-5 = test system: SK-MEL-5
ACHN = test system: ACHN
NCI-H23 = test system: NCI-H23
HT-29 = test system: HT-29
DU-145 = test system: DU-145
U-251 = test system: U-251
UO-31 = test system: UO-31
IGROV-1 = test system: IGROV-1
MDA-N = test system: MDA-N
HL-60 = test system: HL-60
Malme-3M = test system: Malme-3M
786-0 = test system: 786-0
HCT-116 = test system: HCT-116
UACC-257 = test system: UACC-257
PC-3 = test system: PC-3
HCT-15 = test system: HCT-15
UACC-62 = test system: UACC-62
HOP-92 = test system: HOP-92
BT-549 = test system: BT-549
TK-10 = test system: TK-10
MCF7 = test system: MCF7
T47D = test system: T47D
RPMI-8226 = test system: RPMI-8226
SF-539 = test system: SF-539
OVCAR-8 = test system: OVCAR-8
SN12C = test system: SN12C
EKVX = test system: EKVX
COLO 205 = test system: COLO 205
MDA-MB-231 = test system: MDA-MB-231
HCC 2998 = test system: HCC 2998
SK-MEL-28 = test system: SK-MEL-28
NCI-H460 = test system: NCI-H460
OVCAR-4 = test system: OVCAR-4
SNB-75 = test system: SNB-75
NCI-H226 = test system: NCI-H226
MOLT-4 = test system: MOLT-4
SF-268 = test system: SF-268
A549 = test system: A549
OVCAR-5 = test system: OVCAR-5
HOP-62 = test system: HOP-62
A498 = test system: A498
SNB-19 = test system: SNB-19
SR = test system: SR
SK-MEL-2 = test system: SK-MEL-2
SF-295 = test system: SF-295
OVCAR-3 = test system: OVCAR-3
SK-OV-3 = test system: SK-OV-3
K562 = test system: K562
CCRF-CEM = test system: CCRF-CEM
Hs-578T = test system: Hs-578T
NCI-H522 = test system: NCI-H522

SMILES: CCN(CC)CCCC(C)NC(=O)c1cc(-c2nccn2C)nc2ccc(C)cc12 (stereo unspecified)
- GI50 (MDA-MB-435): > 100 µM (inactive)
- GI50 (KM12): > 100 µM (inactive)
- GI50 (SW-620): > 100 µM (inactive)
- GI50 (M14): > 100 µM (inactive)
- GI50 (NCI/ADR-RES): > 100 µM (inactive)
- GI50 (CAKI-1): > 100 µM (inactive)
- GI50 (LOX IMVI): > 100 µM (inactive)
- GI50 (RXF 393): > 100 µM (inactive)
- GI50 (SK-MEL-5): > 100 µM (inactive)
- GI50 (ACHN): > 100 µM (inactive)
- GI50 (NCI-H23): > 100 µM (inactive)
- GI50 (HT-29): > 100 µM (inactive)
- GI50 (DU-145): > 100 µM (inactive)
- GI50 (U-251): > 100 µM (inactive)
- GI50 (UO-31): > 100 µM (inactive)
- GI50 (IGROV-1): > 100 µM (inactive)
- GI50 (MDA-N): > 100 µM (inactive)
- GI50 (HL-60): > 100 µM (inactive)
- GI50 (Malme-3M): > 100 µM (inactive)
- GI50 (786-0): > 100 µM (inactive)
- GI50 (HCT-116): > 100 µM (inactive)
- GI50 (UACC-257): > 100 µM (inactive)
- GI50 (PC-3): > 100 µM (inactive)
- GI50 (HCT-15): > 100 µM
- GI50 (UACC-62): > 100 µM (inactive)
- GI50 (HOP-92): > 100 µM (inactive)
- GI50 (BT-549): > 100 µM (inactive)
- GI50 (TK-10): > 100 µM (inactive)
- GI50 (MCF7): 64.7 µM (inactive)
- GI50 (T47D): > 100 µM (inactive)
- GI50 (RPMI-8226): > 100 µM (inactive)
- GI50 (SF-539): > 100 µM (inactive)
- GI50 (OVCAR-8): > 100 µM (inactive)
- GI50 (SN12C): > 10 µM (inactive)
- GI50 (EKVX): > 100 µM (inactive)
- GI50 (COLO 205): > 100 µM (inactive)
- GI50 (MDA-MB-231): > 100 µM (inactive)
- GI50 (HCC 2998): > 100 µM (inactive)
- GI50 (SK-MEL-28): > 100 µM (inactive)
- GI50 (NCI-H460): 33 µM (inactive)
- GI50 (OVCAR-4): 67.5 µM (inactive)
- GI50 (SNB-75): > 100 µM (inactive)
- GI50 (NCI-H226): > 100 µM (inactive)
- GI50 (MOLT-4): > 10 µM (inactive)
- GI50 (SF-268): > 100 µM (inactive)
- GI50 (A549): > 100 µM (inactive)
- GI50 (OVCAR-5): > 100 µM (inactive)
- GI50 (HOP-62): > 100 µM (inactive)
- GI50 (A498): > 100 µM (inactive)
- GI50 (SNB-19): > 100 µM (inactive)
- GI50 (SR): < 0.01 µM (active)
- GI50 (SK-MEL-2): > 100 µM (inactive)

SMILES: CN1CCN(/C(N)=C(\C#N)C(=O)Nc2ccccc2)CC1
- GI50 (MDA-MB-435): > 100 µM (inactive)
- GI50 (KM12): > 100 µM (inactive)
- GI50 (SW-620): > 100 µM (inactive)
- GI50 (M14): > 100 µM (inactive)
- GI50 (NCI/ADR-RES): > 100 µM (inactive)
- GI50 (CAKI-1): > 100 µM (inactive)
- GI50 (LOX IMVI): > 100 µM (inactive)
- GI50 (SF-295): > 100 µM (inactive)
- GI50 (OVCAR-3): > 100 µM (inactive)
- GI50 (SK-MEL-5): > 100 µM (inactive)
- GI50 (ACHN): > 100 µM (inactive)
- GI50 (NCI-H23): > 100 µM (inactive)
- GI50 (DU-145): > 100 µM (inactive)
- GI50 (U-251): > 100 µM (inactive)
- GI50 (UO-31): > 100 µM (inactive)
- GI50 (IGROV-1): > 100 µM (inactive)
- GI50 (MDA-N): > 100 µM (inactive)
- GI50 (786-0): > 100 µM (inactive)
- GI50 (HCT-116): > 100 µM (inactive)
- GI50 (UACC-257): > 100 µM (inactive)
- GI50 (PC-3): > 100 µM (inactive)
- GI50 (HCT-15): > 100 µM
- GI50 (UACC-62): > 100 µM (inactive)
- GI50 (HOP-92): > 100 µM (inactive)
- GI50 (BT-549): > 100 µM (inactive)
- GI50 (MCF7): > 100 µM (inactive)
- GI50 (T47D): > 100 µM (inactive)
- GI50 (RPMI-8226): > 100 µM (inactive)
- GI50 (SF-539): > 100 µM (inactive)
- GI50 (OVCAR-8): > 100 µM (inactive)
- GI50 (SN12C): > 100 µM (inactive)
- GI50 (EKVX): > 100 µM (inactive)
- GI50 (SK-OV-3): > 100 µM (inactive)
- GI50 (COLO 205): > 100 µM (inactive)
- GI50 (K562): > 100 µM (inactive)
- GI50 (CCRF-CEM): > 100 µM (inactive)
- GI50 (HCC 2998): > 100 µM (inactive)
- GI50 (SK-MEL-28): > 100 µM (inactive)
- GI50 (NCI-H460): > 100 µM (inactive)
- GI50 (SNB-75): > 100 µM (inactive)
- GI50 (NCI-H226): > 100 µM (inactive)
- GI50 (MOLT-4): > 100 µM (inactive)
- GI50 (A549): > 100 µM (inactive)
- GI50 (OVCAR-5): > 100 µM (inactive)
- GI50 (HOP-62): > 100 µM (inactive)
- GI50 (A498): > 100 µM (inactive)
- GI50 (SNB-19): > 100 µM (inactive)
- GI50 (SR): > 100 µM (inactive)
- GI50 (SK-MEL-2): > 100 µM (inactive)

SMILES: O=C1C2CC=CCC2C(=O)N1n1c(-c2ccccc2)n[nH]c1=O (stereo unspecified)
- GI50 (MDA-MB-435): > 100 µM (inactive)
- GI50 (KM12): > 100 µM (inactive)
- GI50 (SW-620): > 100 µM (inactive)
- GI50 (M14): > 100 µM (inactive)
- GI50 (NCI/ADR-RES): > 100 µM (inactive)
- GI50 (CAKI-1): > 100 µM (inactive)
- GI50 (LOX IMVI): > 100 µM (inactive)
- GI50 (SF-295): > 100 µM (inactive)
- GI50 (RXF 393): > 100 µM (inactive)
- GI50 (OVCAR-3): > 100 µM (inactive)
- GI50 (SK-MEL-5): > 100 µM (inactive)
- GI50 (ACHN): > 100 µM (inactive)
- GI50 (NCI-H23): > 100 µM (inactive)
- GI50 (HT-29): > 100 µM (inactive)
- GI50 (U-251): > 100 µM (inactive)
- GI50 (UO-31): > 100 µM (inactive)
- GI50 (IGROV-1): > 100 µM (inactive)
- GI50 (MDA-N): > 100 µM (inactive)
- GI50 (Malme-3M): > 100 µM (inactive)
- GI50 (786-0): > 100 µM (inactive)
- GI50 (HCT-116): > 100 µM (inactive)
- GI50 (UACC-257): > 100 µM (inactive)
- GI50 (PC-3): > 100 µM (inactive)
- GI50 (HCT-15): > 100 µM
- GI50 (UACC-62): > 100 µM (inactive)
- GI50 (HOP-92): > 100 µM (inactive)
- GI50 (BT-549): > 100 µM (inactive)
- GI50 (TK-10): > 100 µM (inactive)
- GI50 (MCF7): > 100 µM (inactive)
- GI50 (Hs-578T): > 100 µM (inactive)
- GI50 (T47D): > 100 µM (inactive)
- GI50 (RPMI-8226): > 100 µM (inactive)
- GI50 (NCI-H522): > 100 µM (inactive)
- GI50 (SF-539): > 100 µM (inactive)
- GI50 (OVCAR-8): > 100 µM (inactive)
- GI50 (SN12C): > 100 µM (inactive)
- GI50 (EKVX): > 100 µM (inactive)
- GI50 (SK-OV-3): > 100 µM (inactive)
- GI50 (COLO 205): > 100 µM (inactive)
- GI50 (MDA-MB-231): > 100 µM (inactive)
- GI50 (K562): > 100 µM (inactive)
- GI50 (CCRF-CEM): > 100 µM (inactive)
- GI50 (HCC 2998): > 100 µM (inactive)
- GI50 (NCI-H460): > 100 µM (inactive)
- GI50 (OVCAR-4): > 100 µM (inactive)
- GI50 (NCI-H226): > 100 µM (inactive)
- GI50 (MOLT-4): > 100 µM (inactive)
- GI50 (SF-268): > 100 µM (inactive)
- GI50 (A549): > 100 µM (inactive)
- GI50 (OVCAR-5): > 100 µM (inactive)
- GI50 (HOP-62): > 100 µM (inactive)
- GI50 (A498): > 100 µM (inactive)
- GI50 (SNB-19): > 100 µM (inactive)
- GI50 (SR): > 100 µM (inactive)
- GI50 (SK-MEL-2): > 100 µM (inactive)
